Results published in US6713251B2, “Method for detection of drug-induced mutations in the reverse transcriptase gene” (Innogenetics N.V., priority 1996, dated 2004).

Key:
[1] = test system: CD4 cells; assay: Follow-up of CD4 cell count in treated HIV-1 infected patients; format: in vivo, human
Method: (§1) Plasma samples were taken from HIV type-1 infected patients and stored at −20° C. until use. Patients were treated with AZT, ddI, ddC, D4T, 3TC, or several combinations of these prodrugs. The European serum samples tested were randomly selected. For the US serum collection, only the first sample from a follow-up series was taken. Some of these US patients were treated, others were not treated.
We selected follow-up samples from three patients and analyzed the viral genotype on the 48 LiPA probes. FIG. 3 illustrates the applicability of genotypic resistance measurement in conjunction with the analysis of viral load and CD4 cell count.

[2] = test system: HIV-1; assay: Follow-up of plasma HIV RNA copy number (viral load, HIV Monitor test) in treated patients; format: in vivo, human
Method: as §1
For cDNA synthesis and PCR amplification, the RNA pellet was dissolved in 15 μl random primers (20 ng/μl, pdN6, Pharmacia), prepared in DEPC-treated or HPLC grade water. After denaturation at 70° C. for 10 minutes, 5 μl cDNA mix was added, composed of 4 μl 5×AMV-RT buffer (250 mM Tris.HCl pH 8.5, 100 mM KCl, 30 mM MgCl2, 25 mM DTT), 0.4 μL 25 mM dXTPs, 0.2 μl or 25U Ribonuclease Inhibitor (HPRI, Amersham), and 0.3 μl or 8U AMV-RT (Stratagene). CDNA synthesis occurred during the 90 minutes incubation at 42° C. The HIV RT gene was then amplified using the following reaction mixture. […] Nested round PCR products were analysed on agarose gel and only clearly visible amplification products were used in the LiPA procedure. Quantification of viral RNA was obtained with the HIV Monitor™test (Roche, Brussels, Belgium).
We selected follow-up samples from three patients and analyzed the viral genotype on the 48 LiPA probes. […]

SMILES: Nc1ccn([C@@H]2CS[C@H](CO)O2)c(=O)n1 [3TC, (−)-β-L-2′,3′-dideoxy-3′-thioCytidine]
- CD4 count increase ([1]; Patient 94013, 3TC monotherapy from week 2 onwards, highest level at week 10): ~2.5 fold
- Viral load decrease ([2]; Patient 94013, 3TC monotherapy from week 2 onwards): 3 log units

SMILES: Cc1cn([C@H]2C[C@H](N=[N+]=[N-])[C@@H](CO)O2)c(=O)[nH]c1=O [AZT, 3′-azido-2′,3′-dideoxyThymidine]
- Change in CD4 count ([1]; Patient 92021, AZT monotherapy from week 10, peak at week 21): initially increased
- Effect on viral load ([2]; Patient 92021, ten weeks of AZT treatment (from week 10), values of week 16 and 19): did not result in a drop in viral load
